2 molecules from publication PMC8533986, “[^99mTc]Tc-DB15 in GRPR-Targeted Tumor Imaging with SPECT: From Preclinical Evaluation to the First Clinical Outcomes” (Cancers, 2021) can be followed below.

A value given as a limit tells only on which side of the number the result lay.

The target in one test is T1, human GRPR (Homo sapiens, UniProt P30550).
T1 construct: displacement of the [^125I]I-[Tyr^4]BBN radioligand from freshly harvested PC-3 cell membranes; host or cells: PC-3 human prostate adenocarcinoma cells (membrane homogenate)
In words: Competition binding assay, displacement of [125I]I-[Tyr4]BBN from PC-3 cell membranes. The following applies: PC-3 cell membrane homogenates, 1 h at 22 °C, pH 7.4, mean ± SD of three experiments in triplicate, read-out: IC50, binding affinity for the human GRPR. As to the method: 2.4. Competition Binding Assays in PC-3 Cell-Membranes
Rapid filtration through glass fiber filters (Whatman GF/B, presoaked in binding buffer for at least 1 h) on a Brandel Cell Harvester (Adi Hassel Ingenieur Büro, Munich, Germany) and rinsing with ice-cold washing buffer (10 mM HEPES pH 7.4, 150 mM NaCl) followed. Filter radioactivity was measured in a gamma counter (automated multi-sample well-type instrument with a NaI(Tl) 3” crystal, Canberra Packard Cobra^TM Quantum U5003/1, Auto-Gamma® counting system). […] Values are expressed as mean ± standard deviation (SD) of three experiments performed in triplicate.

The next test deals with PC-3 cells. As to the kind of experiment: Time-dependent uptake of [99mTc]Tc-DB15 in PC-3 cells. It is filed as cell-based, human. The method, then:
(§1) 2.5. Time-Dependent Uptake of [^99mTc]Tc-DB15 in PC-3 and T-47D Cells
(§2) One day before the experiment, PC-3 or T-47D cells were seeded in 6-well plates (≈1 × 10^6 cells per well). Next day, the cells were rinsed with ice-cold internalization medium (IM, RPMI-1640 GlutaMAX-I, supplemented by 1% (v/v) FBS). […] [^99mTc]Tc-DB15 (250 fmol total peptide in 150 µL 0.5% BSA-PBS) was added in all wells and the plates were incubated at for 15 min, 30 min, 1 h and 2 h at 37 °C in an Incubator-Orbital Shaker unit (MPM Instr. SrI, Bernareggio, MI, Italy). Cells were then placed on ice, the medium was collected, and the plates were rinsed with 0.5% BSA-PBS (1 mL). Membrane-bound fractions were collected after treatment in acid-wash solution (2 × 600 µL; 50 mM glycine buffer pH 2.8, 0.1 M NaCl). Internalized fractions were collected after treatment with 1 N NaOH (2 × 600 µL), as previously described. After counting of radioactivity of all collected fractions in the gamma counter, the percentage of specific internalized and membrane-bound fractions per time point were calculated with Microsoft Excel and the respective curves were drawn. Specific internalized and membrane-bound counts were determined by subtracting the respective non-specific from the respective total counts. Results represent specific internalized ±SD of total added radioactivity per well from three experiments performed in triplicate.

The subject of the next test is T-47D cells. As to the kind of experiment: Time-dependent uptake of [99mTc]Tc-DB15 in T-47D cells. It is filed as cell-based, human. The method, then:
as §1, §2

The next test has as its system BC patients. Particulars: two advanced BC patients, imaging 15 min-24 h pi.
Setting [1] is: 30 min incubation, 37 °C, 250 fmol total peptide, mean ± SD, three experiments in triplicate.
Where [2] appears, read: all time points (15 min-2 h), results not shown.

T1 sequence (P30550 whole entry): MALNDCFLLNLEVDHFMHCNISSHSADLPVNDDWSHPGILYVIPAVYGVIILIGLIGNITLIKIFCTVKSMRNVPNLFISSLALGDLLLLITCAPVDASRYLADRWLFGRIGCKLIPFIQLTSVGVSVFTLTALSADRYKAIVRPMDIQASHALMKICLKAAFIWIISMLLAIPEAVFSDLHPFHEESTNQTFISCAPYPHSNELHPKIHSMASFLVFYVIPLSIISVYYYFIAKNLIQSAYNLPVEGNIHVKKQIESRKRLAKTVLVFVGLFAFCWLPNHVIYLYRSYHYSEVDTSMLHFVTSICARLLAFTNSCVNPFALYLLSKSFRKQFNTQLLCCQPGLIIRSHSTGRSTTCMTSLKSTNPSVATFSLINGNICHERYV
Experimental for BC patients: Two BC patients were tested for the potential of pathological lesion detection after injection of [^99mTc]Tc-DB15.
A single dose of [^99mTc]Tc-DB15 (5-mL, 700–800 MBq corresponding to 20 μg DB15) was administered as a slow intravenous (iv) injection over 1 min. Vital signs (pulse rate, systolic and diastolic BP) were measured prior to the injection of [^99mTc]DB15 as well as within 15 min pi. Likewise, ECGs were performed prior to the injection, continuously during the injection and for 15 min pi. ECG and vital signs were measured again after the last scan was completed and blood tests for hematology and biochemistry (glucose, creatinine, bilirubin, transaminases, sodium, potassium, calcium) were performed. The laboratory evaluation was repeated 7, 14 and 28 days after imaging. Adverse events (AEs) were assessed and graded according to National Cancer Institute Common Toxicity Criteria for Adverse Events (CTCAE) Version 3.0.
Gamma camera imaging was performed on a Symbia Intevo Bold dual-head SPECT/CT scanner (Siemens Healthineers AG; Erlangen, Germany) equipped with a 16-slice CT scanner. Planar imaging of the whole body and SPECT/CT images of the thorax were obtained 15 min, 1 h, 3 h, and 24 h pi. Planar and SPECT/CT images were inspected for increased uptake by two experienced nuclear medicine specialists.

Turning to `CCNC(=O)[C@H](CC(C)C)NC(=O)[C@H](Cc1c[nH]cn1)NC(=O)CN(C)C(=O)[C@@H](NC(=O)[C@H](C)NC(=O)[C@H](Cc1c[nH]c2ccccc12)NC(=O)[C@H](CCC(N)=O)NC(=O)[C@@H](Cc1ccccc1)NC(=O)COCC(=O)Nc1ccc(CNC(=O)C(CNCCN)CNCCN)cc1)C(C)C` [DB15, N4-AMA-DGA-DPhe^6,Sar^11,LeuNHEt^13]BBN(6-13)], the IC50 at human GRPR came to 0.37 ± 0.03 nM.

On to “[^99mTc]Tc-N4-AMA-DGA-DPhe^6,Sar^11,LeuNHEt^13]BBN(6-13) [[^99mTc]Tc-DB15]”, for which the “portion found within the cells (internalized)” value in the test with PC-3 cells (37 °C) and in the test on T-47D cells (37 °C) was below 6% in each case. Besides, the “specific cell uptake (cell-associated fraction of total added activity)” value with PC-3 cells (setting [1]) was found to be 13.1 ± 0.1%; in the test with T-47D cells (setting [1]), 24.2 ± 0.7%. In addition, the “cell association in the presence of 1 μM [Tyr4]BBN” value with PC-3 cells (setting [2]) and in the test on T-47D cells (setting [2]) was below 0.9% throughout. Further, the “Pathological findings on planar and SPECT/CT images” value in the test on BC patients is “increased uptake of [^99mTc]Tc-DB15 in the BC metastases in both patients”.
